Results on two molecules are retold here after publication PMC6020689 (Angewandte Chemie (International ed. in English), 2018).

Structures are written as SMILES.

The target of the assay is EtCYP112 (Erwinia tracheiphila, UniProt A0A0M2KIP9). Description: GC-MS product analysis, reconstituted system. The note with it: spinach Fd, EtFdR. Format: biochemical.

Consider `C=C1C[C@]23C[C@H]1CC[C@H]2[C@]1(C=O)CCC[C@@](C)(C(=O)O)[C@H]1[C@@H]3C(=O)O` [GA24], for which the “GC-MS product analysis, reconstituted system” value (NADPH) was “while GA15 and GA24 were readily converted to GA9, GA25 is not”. For `C=C1C[C@]23C[C@H]1CC[C@H]2[C@]1(C)CCC[C@@](C)(C(=O)O)[C@H]1[C@@H]3C(=O)O` [GA12], the “GC-MS product analysis, reconstituted system” value (NADPH in excess) was “reconstituted system with purified ferredoxin reductase from E. tracheiphila (EtFdR) and spinach ferredoxin (Fd), converting GA12”.
